Measured values taken from patent US8324226B2, “Therapeutic oxy-phenyl-aryl compounds and their use” (Cancer Research Technology Limited, priority 2007, dated 2012).
Several values for one entry are separate records, joined by “and”; a condition that tells them apart may be missing. Equal values may be shown once. Read-outs that look alike come from different tables or passages of the source.

Biological target: T1, CHK2 (Homo sapiens, UniProt O96017)
T1 construct: made in house
Assay: CHK2 kinase activity assay (DELFIA, phosphorylation of a CDC25C peptide)
Format: biochemical
Settings: ATP 30 μM, CHK2 1 nM, read-out: IC50, inhibition of CHK2 kinase activity in vitro

T1 sequence (O96017 whole entry): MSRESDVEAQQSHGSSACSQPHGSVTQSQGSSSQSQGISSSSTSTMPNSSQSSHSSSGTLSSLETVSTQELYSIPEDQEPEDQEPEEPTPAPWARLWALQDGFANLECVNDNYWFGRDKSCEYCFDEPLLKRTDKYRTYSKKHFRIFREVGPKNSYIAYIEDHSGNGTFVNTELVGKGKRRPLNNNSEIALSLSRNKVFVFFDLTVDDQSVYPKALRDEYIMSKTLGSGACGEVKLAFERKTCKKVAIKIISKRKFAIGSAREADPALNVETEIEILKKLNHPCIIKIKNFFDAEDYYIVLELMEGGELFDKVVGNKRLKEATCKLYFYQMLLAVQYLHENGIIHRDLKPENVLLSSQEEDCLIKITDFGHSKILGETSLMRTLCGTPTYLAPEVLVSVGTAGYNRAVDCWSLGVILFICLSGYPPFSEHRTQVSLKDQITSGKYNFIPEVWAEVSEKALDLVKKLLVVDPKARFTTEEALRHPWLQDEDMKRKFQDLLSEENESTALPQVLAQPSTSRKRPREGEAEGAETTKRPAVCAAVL

SMILES | IC50 (first set of tested compounds) [µM] | IC50 (following further studies)
O=C([C@H]1C[C@H](Nc2nc(-c3ccccc3O)nc3ccccc23)CN1)N1CCNCC1 [Compound A-035, ((2R,4S)-4-(2-(2-Hydroxyphenyl)quinazolin-4-ylamino)pyrrolidin-2-yl)(piperazin-1-yl)methanone] | < 3 | 0.3 to 3 µM
CCNC(=O)[C@H]1C[C@H](Nc2nc(-c3ccccc3O)nc3ccccc23)CN1 [Compound A-051, (2R,4S)-N-Ethyl-4-(2-(2-hydroxyphenyl)quinazolin-4-ylamino)pyrrolidine-2-carboxamide] | < 3 | 0.3 to 3 µM
Nc1nnc(-c2ccc(O)c(-c3nc(N[C@H]4CCNC4)c4ccccc4n3)c2)s1 [Compound A-110, (S)-4-(5-Amino-1,3,4-thiadiazol-2-yl)-2-(4-(pyrrolidin-3-ylamino)quinazolin-2-yl)phenol] | – | ≤ 0.3 µM
Oc1ccccc1-c1nc(N[C@H]2CCNC2)c2cc(-c3ccc(CN4CCOCC4)cc3)ccc2n1 [Compound A-028, (S)-2-(6-(4-(Morpholinomethyl)phenyl)-4-(pyrrolidin-3-ylamino)quinazolin-2-yl)phenol] | < 3 | 0.3 to 3 µM
O=C([C@H]1C[C@H](Nc2nc(-c3ccccc3O)nc3ccccc23)CN1)N1CCCCC1 [Compound A-037, ((2R,4S)-4-(2-(2-Hydroxyphenyl)quinazolin-4-ylamino)pyrrolidin-2-yl)(piperidin-1-yl)methanone] | < 3 | ≤ 0.3 µM
Oc1ccccc1-c1nc(N[C@H]2CCNC2)c2ccc(-c3ccccc3)cc2n1 [Compound A-020, (S)-2-(7-phenyl-4-(pyrrolidinyl-3-ylamino)quinazolin-2-yl)phenol] | < 3 | 0.3 to 3 µM
CC(C)(O)CCc1ccc2c(N[C@H]3CCNC3)nc(-c3cc(F)ccc3O)nc2c1 [Compound A-097, (S)-4-Fluoro-2-(7-(3-hydroxy-3-methylbutyl)-4-(pyrrolidin-3-ylamino)quinazolin-2-yl)phenol] | – | ≤ 0.3 µM
O=C(NCc1ccccc1)[C@H]1C[C@H](Nc2nc(-c3ccccc3O)nc3ccccc23)CN1 [Compound A-031, (2R,4S)-N-Benzyl-4-(2-(2-hydroxyphenyl)quinazolin-4-ylamino)pyrrolidine-2-carboxamide] | < 3 | 0.3 to 3 µM
CN(c1nc(-c2cc(Cl)ccc2O)nc2ccccc12)[C@H]1CCNC1 [Compound A-044, (S)-4-Chloro-2-(4-(methyl(pyrrolidin-3-yl)amino)quinazolin-2-yl)phenol] | < 3 | ≤ 0.3 µM
CN1CCCC(Nc2nc(-c3ccccc3O)nc3ccccc23)C1 (stereo not drawn) [Compound A-001, 2-[4-(1-Methyl-piperidin-3-yl-amino)-quinazolin-2-yl]-phenol] | < 3 | 0.3 to 3 µM and 1.6 µM
N[C@@H]1CCCC[C@@H]1Nc1nc(-c2ccccc2O)nc2ccccc12 (relative stereo) [Compound B-002] | 3 to 30 | 3 to 30 µM and 3.8 µM
COc1ccc2c(N[C@H]3CCNC3)nc(-c3cc(F)ccc3O)nc2c1 [Compound A-074, (S)-4-Fluoro-2-(7-methoxy-4-(pyrrolidin-3-ylamino)quinazolin-2-yl)phenol] | – | ≤ 0.3 µM
COCCCc1ccc2c(N[C@H]3CCNC3)nc(-c3ccccc3O)nc2c1 [Compound A-079, (S)-2-(7-(3-Methoxypropyl)-4-(pyrrolidin-3-ylamino)quinazolin-2-yl)phenol] | – | ≤ 0.3 µM
Oc1ccccc1-c1nc(N[C@H]2CCNC2)c2ccc(Cl)cc2n1 [Compound A-062, (S)-2-(7-Chloro-4-(pyrrolidin-3-ylamino)quinazolin-2-yl)phenol] | – | ≤ 0.3 µM
Oc1ccccc1-c1cc(N[C@H]2CCNC2)c2ccccc2n1 [Compound C-001, (S)-2-(4-(Pyrrolidin-3-ylamino)quinolin-2-yl)phenol] | 3 to 30 | 3 to 30 µM and 4.4 µM
CNC(=O)[C@H]1C[C@H](Nc2nc(-c3ccccc3O)nc3ccccc23)CN1 [Compound A-032, (2R,4S)-4-(2-(2-Hydroxyphenyl)quinazolin-4-ylamino)-N-methylpyrrolidine-2-carboxamide] | < 3 | 0.3 to 3 µM
NC1CCCC(Nc2nc(-c3ccccc3O)nc3ccccc23)C1 (stereo not drawn) [Compound B-004, 2-[4-(3-Aminocyclohexylamino)-quinazolin-2-yl]-phenol] | < 3 | 0.3 to 3 µM

Further lines, results first:

IC50 (first set of tested compounds) [µM] | IC50 (following further studies) | SMILES
< 3 | ≤ 0.3 µM | Oc1ccccc1-c1nc(N[C@H]2CCNC2)c2ccc(-c3ccc(CN4CCOCC4)cc3)cc2n1 [Compound A-027, (S)-2-(7-(4-(Morpholinomethyl)phenyl)-4-(pyrrolidin-3-ylamino)quinazolin-2-yl)phenol]
– | 0.3 to 3 µM | Oc1ccc(-c2ccsc2)cc1-c1nc(N[C@H]2CCNC2)c2ccccc2n1 [Compound A-108, (S)-2-(4-(Pyrrolidin-3-ylamino)quinazolin-2-yl)-4-(thiophen-3-yl)phenol]
< 3 | 0.3 to 3 µM | Oc1ccccc1-c1nc(N[C@H]2CCNC2)c2cc(Br)ccc2n1 [Compound A-016, (S)-2-(6-Bromo-4-(pyrrolidin-3-ylamino)quinazolin-2-yl)phenol]
< 3 | ≤ 0.3 µM | Oc1ccc(Br)cc1-c1nc(N[C@H]2CCNC2)c2ccccc2n1 [Compound A-041, (S)-4-Bromo-2-(4-(pyrrolidin-3-ylamino)quinazolin-2-yl)phenol]
< 3 | 0.3 to 3 µM | CN1CCC(Nc2nc(-c3ccccc3O)nc3ccccc23)CC1 [Compound A-003, 2-[4-(1-Methylpiperidin-4-ylamino)-quinazolin-2-yl]-phenol]
< 3 | ≤ 0.3 µM | O=C([C@H]1C[C@H](Nc2nc(-c3ccccc3O)nc3ccccc23)CN1)N1CCOCC1 [Compound A-038, ((2R,4S)-4-(2-(2-Hydroxyphenyl)quinazolin-4-ylamino)pyrrolidin-2-yl)(morpholino)methanone]
– | 0.3 to 3 µM | Oc1ccc(Cl)cc1-c1nc(N[C@@H]2CNC[C@H]2c2ccccc2)c2ccccc2n1 (relative stereo) [Compound A-063, 4-Chloro-2-(4-(trans-4-phenylpyrrolidin-3-ylamino)quinazolin-2-yl)phenol]
– | ≤ 0.3 µM | OCCCc1ccc2c(N[C@H]3CCNC3)nc(-c3cc(F)ccc3O)nc2c1 [Compound A-071, (S)-4-Fluoro-2-(7-(3-hydroxypropyl)-4-(pyrrolidin-3-ylamino)quinazolin-2-yl)phenol]
3 to 30 | 3 to 30 µM | Oc1ccccc1-c1nc(N[C@H]2CCNC2)c2cc(-c3ccccc3)ccc2n1 [Compound A-025, (S)-2-(6-Phenyl-4-(pyrrolidinyl-3-ylamino)quinazolin-2-yl)phenol]
3 to 30 | 3 to 30 µM and 8.2 µM | Oc1ccccc1-c1nccc(N[C@H]2CCNC2)n1 [Compound D-002]
< 3 | ≤ 0.3 µM | OCC#Cc1ccc2c(N[C@H]3CCNC3)nc(-c3ccccc3O)nc2c1 [Compound A-054, (S)-2-(7-(3-Hydroxyprop-1-ynyl)-4-(pyrrolidin-3-ylamino)quinazolin-2-yl)phenol]
– | ≤ 0.3 µM | COc1ccc([C@@H]2CNC[C@H]2Nc2nc(-c3cc(F)ccc3O)nc3ccccc23)cc1 (relative stereo) [Compound A-090, 4-Fluoro-2-(4-(trans-4-(4-methoxyphenyl)pyrrolidin-3-ylamino)quinazolin-2-yl)phenol]
< 3 | ≤ 0.3 µM | CN(c1nc(-c2cc(F)ccc2O)nc2ccccc12)[C@H]1CCNC1 [Compound A-043, (S)-4-Fluoro-2-(4-(methyl(pyrrolidin-3-yl)amino)quinazolin-2-yl)phenol]
– | ≤ 0.3 µM | COC/C=C/c1ccc2c(N[C@H]3CCNC3)nc(-c3ccccc3O)nc2c1 [Compound A-078, (S,E)-2-(7-(3-Methoxyprop-1-enyl)-4-(pyrrolidin-3-ylamino)quinazolin-2-yl)phenol]
< 3 | 0.3 to 3 µM | O=C([C@H]1C[C@H](Nc2nc(-c3ccccc3O)nc3ccccc23)CN1)N1CCC1 [Compound A-049, Azetidin-1-yl((2R,4S)-4-(2-(2-hydroxyphenyl)quinazolin-4-ylamino)pyrrolidin-2-yl)methanone]
– | ≤ 0.3 µM | CC(C)(O)CCc1ccc2nc(-c3cc(F)ccc3O)nc(N[C@H]3CCNC3)c2c1 [Compound A-102, (S)-4-Fluoro-2-(6-(3-hydroxy-3-methylbutyl)-4-(pyrrolidin-3-ylamino)quinazolin-2-yl)phenol]
– | 0.3 to 3 µM | O=C(O)[C@@H]1CNC[C@H]1Nc1nc(-c2cc(F)ccc2O)nc2ccccc12 (relative stereo) [Compound A-089, trans-4-(2-(5-Fluoro-2-hydroxyphenyl)quinazolin-4-ylamino)pyrrolidine-3-carboxylic acid]
– | 0.3 to 3 µM | Oc1ccc(F)cc1-c1nc(N[C@@H]2CNC[C@H]2c2cccc(Cl)c2)c2ccccc2n1 (relative stereo) [Compound A-083]
< 3 | ≤ 0.3 µM | CC(C)N(C)C(=O)[C@H]1C[C@H](Nc2nc(-c3ccccc3O)nc3ccccc23)CN1 [Compound A-048, (2R,4S)-4-(2-(2-Hydroxyphenyl)quinazolin-4-ylamino)-N-isopropyl-N-methylpyrrolidine-2-carboxamide]
– | ≤ 0.3 µM | Oc1ccc(Cl)cc1-c1nc(NC2CCCNCC2)c2ccccc2n1 (stereo not drawn) [Compound A-057, 2-(4-(Azepan-4-ylamino)quinazolin-2-yl)-4-chlorophenol]
– | 0.3 to 3 µM | Oc1ccc(-c2cccc(F)c2)cc1-c1nc(N[C@H]2CCNC2)c2ccccc2n1 [Compound A-107, (S)-3′-Fluoro-3-(4-(pyrrolidin-3-ylamino)quinazolin-2-yl)biphenyl-4-ol]
– | ≤ 0.3 µM | Oc1ccc(F)cc1-c1nc(NC2CCCNCC2)c2ccccc2n1 (stereo not drawn) [Compound A-060, 2-(4-(Azepan-4-ylamino)quinazolin-2-yl)-4-fluorophenol]
– | ≤ 0.3 µM | Oc1ccc(Cl)cc1-c1nc(NC2CCCCNC2)c2ccccc2n1 (stereo not drawn) [Compound A-058, 2-(4-(Azepan-3-ylamino)quinazolin-2-yl)-4-chlorophenol]
